Laboratory results published in ChEMBL document CHEMBL4400506, “8-Hydroxy-2-(1H-1,2,3-triazol-1-yl)-1,4-naphtoquinone derivatives inhibited P2X7 Receptor-Induced dye uptake into murine Macrophages” (Bioorg Med Chem, 2019).
The source made the active and inactive calls. The calls are words filed in the database; no cut-off is given here.

How the values were obtained:
[1] = system: Peritoneal macrophage; assay: Cytotoxicity against Swiss Webster mouse peritoneal macrophages assessed as plasma membrane disruption at 100 uM measured after 24 hrs by dextran rhodamine dye based fluorescence assay; type: cell-based
[2] = target: T1, P2X purinoceptor 7 (Mus musculus) (UniProt Q9Z1M0); assay: Antagonist activity at P2X7R in Swiss Webster mouse peritoneal macrophages assessed as inhibition of propidium iodide uptake preincubated for 10 mins propidium iodide addition measured after 5 mins by fluorescence microscopic analysis
T1 sequence (whole entry): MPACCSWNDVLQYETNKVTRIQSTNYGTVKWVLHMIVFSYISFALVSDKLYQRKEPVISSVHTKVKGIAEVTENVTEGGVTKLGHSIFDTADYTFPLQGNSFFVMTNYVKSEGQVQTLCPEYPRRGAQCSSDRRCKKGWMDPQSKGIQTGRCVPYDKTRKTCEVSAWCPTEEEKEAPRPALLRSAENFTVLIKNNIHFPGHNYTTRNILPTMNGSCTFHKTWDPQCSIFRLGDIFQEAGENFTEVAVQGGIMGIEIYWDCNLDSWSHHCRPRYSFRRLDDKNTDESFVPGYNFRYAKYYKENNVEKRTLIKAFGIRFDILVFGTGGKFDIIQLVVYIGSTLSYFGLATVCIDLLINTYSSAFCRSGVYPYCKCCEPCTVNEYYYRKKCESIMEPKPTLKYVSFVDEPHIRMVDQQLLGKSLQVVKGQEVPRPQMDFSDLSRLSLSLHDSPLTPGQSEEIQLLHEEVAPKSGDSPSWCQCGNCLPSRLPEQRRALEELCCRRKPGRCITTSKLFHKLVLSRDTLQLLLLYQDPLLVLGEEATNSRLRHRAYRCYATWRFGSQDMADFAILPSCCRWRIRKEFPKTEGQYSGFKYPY

[3] = target: T1, P2X purinoceptor 7 (Mus musculus); assay: Antagonist activity at P2X7R in Swiss Webster mouse peritoneal macrophages assessed as inhibition of ATP-induced propidium iodide uptake preincubated for 10 mins followed by ATP induction for 25 mins and subsequent propidium iodide addition for last 5 mins by fluorescence microscopic analysis
[4] = target: T2, P2X purinoceptor 7 (Homo sapiens, UniProt Q99572); assay: Antagonist activity at human P2X7R expressed in HEK293 cells assessed as inhibition of ATP-induced […] uptake preincubated for 5 mins followed by ATP induction and measured after 25 mins by fluorescence assay; type: cell-based
T2 sequence (Q99572 whole entry): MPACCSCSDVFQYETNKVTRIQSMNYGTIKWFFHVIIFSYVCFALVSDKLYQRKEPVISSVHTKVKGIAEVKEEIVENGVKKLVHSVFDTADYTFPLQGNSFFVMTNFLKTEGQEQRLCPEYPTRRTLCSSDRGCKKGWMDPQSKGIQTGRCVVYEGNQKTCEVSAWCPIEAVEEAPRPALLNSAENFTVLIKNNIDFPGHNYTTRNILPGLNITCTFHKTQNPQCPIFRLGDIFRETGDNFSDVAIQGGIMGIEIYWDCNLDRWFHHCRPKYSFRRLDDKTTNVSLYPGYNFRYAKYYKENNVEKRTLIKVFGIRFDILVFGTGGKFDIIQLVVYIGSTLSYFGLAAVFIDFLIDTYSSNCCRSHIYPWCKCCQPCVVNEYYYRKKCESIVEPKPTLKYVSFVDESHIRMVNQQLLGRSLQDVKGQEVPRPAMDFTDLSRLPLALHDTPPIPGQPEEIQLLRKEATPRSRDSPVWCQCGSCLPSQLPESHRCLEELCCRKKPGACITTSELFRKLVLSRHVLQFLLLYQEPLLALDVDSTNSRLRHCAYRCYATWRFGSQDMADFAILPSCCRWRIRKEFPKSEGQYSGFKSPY

[5] = Apparent permeability across apical to basolateral side in human Caco2 cells at 100 uM measured after 60 mins by lucifer yellow staining based fluorescence assay; type: ADME, cell-based; details: Caco-2
[6] = Intrinsic clearance in human liver microsomes assessed per mg protein at 1 uM measured in presence of NADPH; type: ADME, Microsome; details: read-out: CLH
[7] = Intrinsic clearance in mouse liver microsomes assessed per mg protein at 1 uM measured in presence of NADPH; type: ADME, Microsome; details: read-out: CLH
[8] = Octanol-PBS distribution co-efficient, log D of the compound at 25 mM at pH 7.4 after 2 hrs by shake flask method; type: physicochemical

Compound | Activity [1] | inhibition [2] | inhibition [3] | IC50 [4] | Papp A→B at 1 h, 100 µM [5] | microsomal CLint at 1 µM [6] | microsomal CLint at 1 µM [7] | logD at 2 h, 25000 µM [8]
CC(C)CC(C)(O)c1cn(C2=CC(=O)c3cccc(O)c3C2=O)nn1 (stereo unspecified) | Non-Toxic | inactive | inactive |  |  |  |  | 
COc1ccc(CC(=O)NC(N/C(=N/C#N)Nc2cccc3ncccc23)C(C)(C)C)cc1OC (stereo unspecified) | Non-Toxic | inactive | Active | 750 nM |  |  |  | 
CCOc1ccc(Nc2ccc(/C(=C3C=C/C(=[N+](/CC)Cc4cccc(S(=O)(=O)[O-])c4)C=C/3C)c3ccc(N(CC)Cc4cccc(S(=O)(=O)[O-])c4)cc3C)cc2)cc1.[Na+] [BRILLIANT BLUE G] | Non-Toxic | inactive | Active | 1370 nM |  |  |  | 
O=C1C=C(n2cc(-c3ccccc3)nn2)C(=O)c2c(O)cccc21 | Toxic | inactive | inactive |  |  |  |  | 
CCC(C)(O)c1cn(C2=CC(=O)c3cccc(O)c3C2=O)nn1 (stereo unspecified) | Non-Toxic | inactive | inactive |  |  |  |  | 
CCCCc1cn(C2=CC(=O)c3cccc(O)c3C2=O)nn1 | Non-Toxic | inactive | Active | 230 nM | 71.8 ×10⁻⁶ cm/s | 46.1 µL/min/mg | 40.6 µL/min/mg | -1.24
CCCc1cn(C2=CC(=O)c3cccc(O)c3C2=O)nn1 | Toxic | inactive | inactive |  |  |  |  | 
O=C1C=C(n2cc(CCCCl)nn2)C(=O)c2c(O)cccc21 | Non-Toxic | inactive | Active | 103 nM | 41.6 ×10⁻⁶ cm/s | 1.2 µL/min/mg | 3.1 µL/min/mg | -0.42
